# Experimental data taken from patent publication US20230002408A1, “HETEROARYLDIHYDROPYRIMIDINE DERIVATIVES AND METHODS OF TREATING HEPATITIS B INFECTIONS” (JANSSEN PHARMACEUTICA NV, priority 2019, published 2023).
# Like-named read-outs stand apart in the source and are kept apart here.
# How the values were obtained:
# Type in all cases: cell-based
# HBV = test: Anti-viral assay in HepG2.2.15 cells: HBV DNA in culture medium by qPCR
# Protocol: (§1) HepG2.2.15 (the HepG2.2.15 cell line can be produced by transfection of the HepG2 cell line as described in Sells, Chen, and Acs 1987 (Proc. Natl. Acad. Sci. USA 84: 1005-1009), and the HepG2 cell line is available from ATCC® under number HB-8065™).
# (§2) HepG2.2.15 cells were plated into 96-well plate in 2% FBS culture medium at the density of 40,000 cells/well and 5,000 cells/well for HBV inhibitory activity and cytotoxicity determination, respectively. After incubation at 37° C., 5% CO2 overnight, cells were treated with medium containing compounds for 6 days with medium and compounds refreshed after 3 days of treatment. Each compound was tested in a 1:3 serial dilutions at 8 different concentrations in triplicate. The highest concentration of the compounds was 10 uM or 1 uM for anti-HBV activity assay and 100 uM for cytotoxicity determination. Cell viability was determined by CCK-8 assay. After 6 days of compounds treatment, 20 μl CCK-8 reagents were added to each well of cytotoxicity assay plates. Cell plates were incubated at 37° C., 5% CO2 for 2.5 h. The absorbance at 450 nm wavelength and the absorbance at 630 nm wavelength as reference was measured.
# The change of HBV DNA level induced by the compounds was assessed by quantitative real-time polymerase chain reaction (qPCR). Briefly, the HBV DNA in the culture medium was extracted using QlAamp 96 DNA Blood Kit according to the manual and then quantified by real-time PCR assay using the primers and probe in the table 1 below.
# (§3) EC50 and CC50 values are calculated by the GRAPHPAD PRISM software.
# HepG2.2.15 cells = test: Cytotoxicity determination in HepG2.2.15 cells (CCK-8 cell viability); details: 6 days treatment, CCK-8, highest concentration 100 uM
# Protocol: as §1, §2, §3
# [1] = as above; details: human, 6 days treatment, CCK-8, highest concentration 100 uM
# Protocol: as §1, §2, §3
# [2] = HepG2.2.15 cells, 6 days treatment, HBV DNA in culture medium by real-time PCR, read-out: EC50
# [3] = Hepatitis B virus, HepG2.2.15, 144 h, HepG2.2.15 cells, 6 days treatment, HBV DNA in culture medium by real-time PCR, read-out: EC50
SMILES,EC50 (HBV; [2]) [µM],CC50 (HepG2.2.15 cells) [µM],EC50 (HBV; [3]) [µM],CC50 at 6 days [1] [µM],"EC50 (HBV; Hepatitis B virus, HepG2.2.15, 144 h) [µM]"
"CCOC(=O)C1=C(CN2CCO[C@H]3CN(CC(C)(C)C(=O)O)C[C@H]32)NC(c2nccs2)=N[C@H]1c1ccc(F)cc1Cl (relative stereo) [Compound I-1A, 3-((4aR*,7aS*)-4-4(R*)-6-(2-chloro-4-fluorophenyl)-5-(ethoxycarbonyl)-2-(thiazol-2-yl)-3,6-dihydropyrimidin-4-yl)methyl)hexahydropyrrolo[3,4-b][1,4]oxazin-6(2H)-yl)-2,2-dimethylpropanoic acid]",0.016,59.8,,,
"CCOC(=O)C1=C(CN2CCO[C@H]3CN(CC(C)(C)C(=O)O)C(=O)[C@H]32)NC(c2nccs2)=N[C@H]1c1ccc(F)cc1Cl (relative stereo) [Compound I-20A, 3-((4aS*,7aS*)-4-4(R*)-6-(2-chloro-4-fluorophenyl)-5-(ethoxycarbonyl)-2-(thiazol-2-yl)-3,6-dihydropyrimidin-4-yl)methyl)-5-oxohexahydropyrrolo[3,4-b][1,4]oxazin-6(2H)-yl)-2,2-dimethylpropanoic acid]",0.001,55,,,
"COC(=O)C1=C(CN2CCO[C@H]3CN(CC(C)(C)C(=O)O)C(=O)[C@H]32)NC(c2nccs2)=N[C@H]1c1cccc(F)c1C (single isomer, unassigned) [Compound I-19A, 3-((4aS*,7aS*)-4-4(S*)-6-(3-fluoro-2-methylphenyl)-5-(methoxycarbonyl)-2-(thiazol-2-yl)-3,6-dihydropyrimidin-4-yl)methyl)-5-oxohexahydropyrrolo[3,4-b][1,4]oxazin-6(2H)-yl)-2,2-dimethylpropanoic acid]",,,0.028,59.1,
"COC(=O)C1=C(CN2CCO[C@H]3CN(CC(C)(C)C(=O)O)C(=O)[C@H]32)NC(c2nccs2)=N[C@H]1c1cccc(F)c1Cl (single isomer, unassigned) [Compound I-21A, 3-((4aS*,7aS*)-4-4(R*)-6-(2-chloro-3-fluorophenyl)-5-(methoxycarbonyl)-2-(thiazol-2-yl)-3,6-dihydropyrimidin-4-yl)methyl)-5-oxohexahydropyrrolo[3,4-b][1,4]oxazin-6(2H)-yl)-2,2-dimethylpropanoic acid]",,,0.008,> 100,
"COC(=O)C1=C(CN2CCO[C@H]3CN(CC(C)(C)C(=O)O)C(=O)[C@H]32)NC(c2nccs2)=N[C@H]1c1ccc(F)c(F)c1Cl (single isomer, unassigned) [Compound I-22A, 3-((4aS*,7aS*)-4-4(R*)-6-(2-chloro-3,4-difluorophenyl)-5-(methoxycarbonyl)-2-(thiazol-2-yl)-3,6-dihydropyrimidin-4-yl)methyl)-5-oxohexahydropyrrolo[3,4-b][1,4]oxazin-6(2H)-yl)-2,2-dimethylpropanoic acid]",,,0.0005,44.3,
"CCOC(=O)C1=C(CN2CCO[C@H]3CN(CC(C)(C)C(=O)O)C(=O)[C@H]32)NC(c2nccs2)=N[C@H]1c1ccc(F)c(F)c1Cl (single isomer, unassigned) [Compound I-23A, 3-((4aS*,7aS*)-4-4(R*)-6-(2-chloro-3,4-difluorophenyl)-5-(ethoxycarbonyl)-2-(thiazol-2-yl)-3,6-dihydropyrimidin-4-yl)methyl)-5-oxohexahydropyrrolo[3,4-b][1,4]oxazin-6(2H)-yl)-2,2-dimethylpropanoic acid]",,,0.0005,45,
"COC(=O)C1=C(CN2CCO[C@H]3CN(CC(C)(C)C(=O)O)C(=O)[C@H]32)NC(c2nccs2)=N[C@H]1c1cccc(F)c1Cl (single isomer, unassigned) [Compound I-24A, 3-((4aS*,7aS*)-4-4(R*)-6-(2-chloro-3-fluorophenyl)-5-(methoxycarbonyl)-2-(thiazol-2-yl)-3,6-dihydropyrimidin-4-yl)methyl)-5-oxohexahydropyrrolo[3,4-b][1,4]oxazin-6(2H)-yl)-2,2-dimethylpropanoic acid]",0.014,> 100,,,
"COC(=O)C1=C(CN2CCO[C@@H]3CN(C(=O)OC(C)(C)C)C[C@H]32)NC(c2ncc(F)cc2F)=N[C@H]1c1ccc(F)cc1Cl (single isomer, unassigned) [Reference 1A, (4aR*,7aR*)-tert-butyl 4-(((R*)-6-(2-chloro-4-fluorophenyl)-2-(3,5-difluoropyridin-2-yl)-5-(methoxycarbonyl)-3,6-dihydropyrimidin-4-yl)methyl)hexahydropyrrolo[3,4-b][1,4]oxazine-6(2H)-carboxylate, reference compound]",,,> 1,14,
"COC(=O)C1=C(CN2CCO[C@H]3CN(C(=O)OC(C)(C)C)C[C@@H]32)NC(c2ncc(F)cc2F)=N[C@H]1c1ccc(F)cc1Cl (single isomer, unassigned) [Reference 1B, (4aS*,7aS*)-tert-butyl 4-(((R*)-6-(2-chloro-4-fluorophenyl)-2-(3,5-difluoropyridin-2-yl)-5-(methoxycarbonyl)-3,6-dihydropyrimidin-4-yl)methyl)hexahydropyrrolo[3,4-b][1,4]oxazine-6(2H)-carboxylate, reference compound]",,,> 1,2.5,
"COC(=O)C1=C(CN2CCO[C@@H]3CN(C(=O)OC(C)(C)C)C[C@H]32)NC(c2ncc(F)cc2F)=N[C@@H]1c1ccc(F)cc1Cl (single isomer, unassigned) [Reference 1C, (4aR*,7aR*)-tert-butyl 4-4(S*)-6-(2-chloro-4-fluorophenyl)-2-(3,5-difluoropyridin-2-yl)-5-(methoxycarbonyl)-3,6-dihydropyrimidin-4-yl)methyl)hexahydropyrrolo[3,4-b][1,4]oxazine-6(2H)-carboxylate, reference compound]",,,0.677,3.7,
"COC(=O)C1=C(CN2CCO[C@H]3CN(C(=O)OC(C)(C)C)C[C@@H]32)NC(c2ncc(F)cc2F)=N[C@@H]1c1ccc(F)cc1Cl (single isomer, unassigned) [Reference 1D, (4aS*,7aS*)-tert-butyl 4-4(S*)-6-(2-chloro-4-fluorophenyl)-2-(3,5-difluoropyridin-2-yl)-5-(methoxycarbonyl)-3,6-dihydropyrimidin-4-yl)methyl)hexahydropyrrolo[3,4-b][1,4]oxazine-6(2H)-carboxylate, reference compound]",,,0.812,5.6,
"COC(=O)C1=C(CN2CCO[C@H]3CN(C(=O)OC(C)(C)C)C[C@H]32)NC(c2ncc(F)cc2F)=N[C@H]1c1ccc(F)cc1Cl (single isomer, unassigned) [Reference 1E, tert-butyl (4aR*,7aS*)-4-4(R*)-6-(2-chloro-4-fluorophenyl)-2-(3,5-difluoropyridin-2-yl)-5-(methoxycarbonyl)-3,6-dihydropyrimidin-4-yl)methyl)hexahydropyrrolo[3,4-b][1,4]oxazine-6(2H)-carboxylate, reference compound]",,,> 1,11.7,
"COC(=O)C1=C(CN2CCO[C@H]3CN(C(=O)OC(C)(C)C)C[C@H]32)NC(c2ncc(F)cc2F)=N[C@@H]1c1ccc(F)cc1Cl (single isomer, unassigned) [Reference 1F, tert-butyl (4aR*,7aS*)-4-4(S*)-6-(2-chloro-4-fluorophenyl)-2-(3,5-difluoropyridin-2-yl)-5-(methoxycarbonyl)-3,6-dihydropyrimidin-4-yl)methyphexahydropyrrolo[3,4-b][1,4]oxazine-6(2H)-carboxylate, reference compound]",,,0.087,5.8,
"COC(=O)C1=C(CN2CCO[C@@H]3CN(C(=O)OC(C)(C)C)C[C@@H]32)NC(c2ncc(F)cc2F)=N[C@H]1c1ccc(F)cc1Cl (single isomer, unassigned) [Reference 1G, (4aS*,7aR*)-tert-butyl 4-(((R*)-6-(2-chloro-4-fluorophenyl)-2-(3,5-difluoropyridin-2-yl)-5-(methoxycarbonyl)-3,6-dihydropyrimidin-4-yl)methyl)hexahydropyrrolo[3,4-b][1,4]oxazine-6(2H)-carboxylate, reference compound]",,,> 1,14.5,
"COC(=O)C1=C(CN2CCO[C@@H]3CN(C(=O)OC(C)(C)C)C[C@@H]32)NC(c2ncc(F)cc2F)=N[C@@H]1c1ccc(F)cc1Cl (single isomer, unassigned) [Reference 1H, (4aS*,7aR*)-tert-butyl 4-(((S*)-6-(2-chloro-4-fluorophenyl)-2-(3,5-difluoropyridin-2-yl)-5-(methoxycarbonyl)-3,6-dihydropyrimidin-4-yl)methyl)hexahydropyrrolo[3,4-b][1,4]oxazine-6(2H)-carboxylate, reference compound]",,,> 1,8.7,
CCOC(=O)C1=C(CN2CCO[C@@H]3CN(C4CCC(C(=O)O)C4)C[C@@H]32)NC(c2nccs2)=N[C@H]1c1cccc(F)c1C (some centres unmarked) [Compound I-5],,,,40.6,0.086
